The results in this text go back to patent US10017481B2, “Conformationally constrained, fully synthetic macrocyclic compounds” (POLYPHOR AG, priority 2012, dated 2018).

Values after ≈ are worked out from the molar mass of the structure shown. Read-outs that look alike come from different tables or passages of the source.

For assay [1], the target named is T1, Human recombinant cathepsin S (Homo sapiens, UniProt P25774).
T1 construct: host or cells: murine myeloma NS0 cells
The assay is described as follows: Cathepsin S (CatS) enzyme assay. The class given is biochemical. How it is done:
2. Enzyme Assays for the Peptidase Endothelin Converting Enzyme-1 (ECE-1) and for the Cysteine Protease Cathepsin S (CatS)
The assays were performed according to provider's (Ricerca Biosciences, LLC) protocols which in turn are based on literature procedures (for ECE-1 cf.: O. Valdenaire et al., Eur. J. Biochem. 1999, 264, 341-349; F. D. Russell, A. P. Davenport, Circ. Res. 1999, 84, 891-896; and for CatS: G P Shi et al., J. Biol. Chem. 1992, 267, 7258-62; D Brömme et al., J. Biol. Chem. 1993 268, 4832-4838.).
Human recombinant cathepsin S expressed in a murine myeloma NS0 cells is used. Test compound and/or vehicle is preincubated with 0.1 μg/ml enzyme in modified acetate buffer pH 4.5 for 15 minutes at 25° C. The reaction is initiated by addition of […] Z-Leu-Arg-AMC for another 30 minutes' incubation period. Determination of the amount of AMC formed is read spectrofluorimetrically at 360 nm/465 nm. […]
IC50 values were determined by a non-linear, least squares regression analysis using MathIQ™ (ID Business Solutions Ltd., UK). Inhibition constants K were calculated according to the equation of Cheng and Prusoff (Y. Cheng, W. H. Prusoff, Biochem. Pharmacol. 1973, 22, 3099-3108) using the observed IC50 of the tested compound, the concentration of radioligand employed in the assay, and the historical values for the KD of the ligand. The Hill coefficient (nH), defining the slope of the competitive binding curve, was calculated using MathIQ™.

The test system of assay [2] is S. pneumoniae DSM 20566 11A11, 3313A6, 704CG4B21, 82BERG72. The assay is described as follows: Antimicrobial assay, broth microdilution MIC, S. pneumoniae strains. The format is cell-based. The following applies: Streptococcus pneumoniae, DSM20566; strain DSM 20566 (Table 32.7); read-out: MIC S. pneumoniae DSM 20566. How it is done:
(§1) The antimicrobial activities of the compounds were determined in 96-well plates (Greiner, polystyrene) by the standard NCCLS broth microdilution method (National Committee for Clinical Laboratory Standards 1993. Methods for dilution antimicrobial susceptibility tests for bacteria that grow aerobically, 3rd ed. Approved standard M7-A6. National Committee for Clinical laboratory standards, Wayne, Pa.) with slight modifications. Inocula of the microorganisms were diluted into Mueller-Hinton II (MH, cation adjusted) broth+0.002% P-80 and compared with a 0.5 McFarland standard to give appr. 10^6 colony forming units (CFU)/mL. Aliquots (50 μl) of inoculate were added to 50 μl of MH broth+0.002% P-80 containing the compounds in serial two-fold dilutions. The following microorganisms were used to determine antibiotic selectivity of the compounds: S. pneumoniae DSM 20566 11A11, 3313A6, 704CG4B21, 82BERG72; S. aureus ATCC 29213, ATCC 25923, DSM 11729, DSM 46320, S. aureus 39. Antimicrobial activities of the compounds were expressed as the minimal inhibitory concentration (MIC) in μg/mL at which no visible growth was observed after 18-20 hours of incubation at 36° C.

In assay [3] the test system is S. aureus ATCC 29213, ATCC 25923, DSM 11729, DSM 46320, S. aureus 39. The assay is described as follows: Antimicrobial assay, broth microdilution MIC, S. aureus strains. The following applies: Staphylococcus aureus. The format is cell-based. How it is done:
as §1

Assay [4] addresses T2, Oxytocin receptor (OT receptor) (Homo sapiens, UniProt P30559).
T2 construct: expressed in transfected cells; host or cells: Ca2+ optimized hematopoietic cell lines (rat)
T2 sequence (P30559 1-389): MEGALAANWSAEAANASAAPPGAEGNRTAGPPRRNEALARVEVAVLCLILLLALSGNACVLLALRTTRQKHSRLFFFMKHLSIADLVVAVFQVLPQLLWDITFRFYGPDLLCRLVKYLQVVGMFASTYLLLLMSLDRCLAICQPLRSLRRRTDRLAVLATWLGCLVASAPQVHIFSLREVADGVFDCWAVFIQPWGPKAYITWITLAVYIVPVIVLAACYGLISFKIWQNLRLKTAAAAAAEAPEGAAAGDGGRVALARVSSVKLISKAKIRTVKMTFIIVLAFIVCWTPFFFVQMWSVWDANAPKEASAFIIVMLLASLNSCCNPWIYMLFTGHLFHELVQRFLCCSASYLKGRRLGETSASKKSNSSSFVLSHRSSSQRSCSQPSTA
The assay is described as follows: Ca2+ flux (FLIPR) assay, OT receptor, agonist/antagonist mode. The class given is cell-based. The following applies: antagonist mode. How it is done:
Biological and Pharmacological Methods 1. Ca^2+ Flux Assays for the GPCRs Oxytocin Receptor (OT Receptor), Thyrotropin-Releasing Hormone Receptor (TRH Receptor) and Bombesin Receptor Subtype 3 (BB3 Receptor)
Assays were performed on a FLIPR^TETRA fluorometric imaging plate reader (Molecular Devices) with ScreenWorks Version 2 (Molecular Devices) as device operating and data analysis software.
Dose dependent agonist and antagonist activities were determined. Percentage activation and percentage inhibition values were determined.
Percentage activation was determined upon initial addition of the sample compounds followed by 10 minutes' incubation at 25° C. Following compound incubation, reference agonists were added at EC80 to determine percentage inhibition.
Reference agonists were purchased from reputable commercial vendors and prepared according to each ligand's specifications. All handling of ligands were done to ensure proper control throughout the experiments.
Example compounds were weighed on a Microbalance (Mettler MX5) and dissolved in 100% DMSO to a final concentration of 2.5 mM and subsequently diluted into the assay buffer.
The assay buffer was a supplemented HBSS (Hank's Balanced Salt Solution). HBSS was supplemented with 20 mM HEPES (4-(2-hydroxyethyl)-piperazin-1-ethansulfonic acid) and 2.5 mM Probenecid (Sigma P8761).
GPCR assays were performed using Ca^2+ optimized hematopoietic cell lines (rat) with cultures never exceeding 90% confluency. Cells were harvested and seeded (from cultures at less than 90% confluency) at 50000 cells/well for a 96-well plate (12500 cells/well for 384). After seeding, the assay plates were incubated for 45 minutes at room temperature. After room temperature incubation, the assay plates were incubated at 37° C. 5% CO2 for 24 hours prior to assaying.
All GPCR assays were performed using Fluo-8 Ca^2+ dye.
Ca^2+ dye was prepared at 1× dye concentration in GPCR assay buffer. After 24 hours of incubation, cells were washed with GPCR assay buffer, and then Ca^2+-dye (100 μL/well) was added.
The plates were incubated for 90 minutes at 30° C. 5% CO2 prior to FLIPR assay.
Compound plates were prepared to add 50 μL/well during the agonist assay mode. During the FLIPR assay, 50 μL/well from the compound plate was diluted 3-fold into the existing 100 μL/well from the dye loading step. Therefore all compounds were prepared as 3× the final concentration desired in the assay.
After completion of the first single addition assay run, assay plate was removed from the FLIPR Tetra and placed at 25° C. for 7 minutes before antagonist assay.
Using the EC80 values determined during the agonist assay, all pre-incubated sample compound and reference antagonist (if applicable) wells were stimulated at the EC80 of the reference agonist. As reference ligands for these assays their obvious natural ligands oxytocin (OT), thyrotropin-releasing hormone (TRH) and bombesin (6-14) [BN(6-14)] were used.
After the addition of the reference agonist fluorescence was monitored for 180 sec using FLIPR Tetra.
From the FLIPR data, with negative control correction enabled, the maximum statistic for each well was exported and percentage activation relative to Emax control was calculated.

T1 sequence (P25774 115-331): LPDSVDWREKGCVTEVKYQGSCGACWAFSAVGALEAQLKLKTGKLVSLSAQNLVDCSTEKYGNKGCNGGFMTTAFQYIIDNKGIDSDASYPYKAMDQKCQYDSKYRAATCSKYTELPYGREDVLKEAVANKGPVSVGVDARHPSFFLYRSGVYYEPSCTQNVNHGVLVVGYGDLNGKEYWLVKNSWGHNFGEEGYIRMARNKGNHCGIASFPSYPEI

Regarding `CN(C)CC(=O)N[C@H]1CCCN(C)C(=O)c2cccc(c2)-c2ccccc2OC[C@@H]2C[C@H](NC(=O)Cc3ccc4ccccc4c3)CN2C1=O` [Ex. 20, 2-(dimethylamino)-N-[(10S,12S,16S)-20-methyl-12-{[2-(2-naphthyl)acetyl]amino}-15,21-dioxo-8-oxa-14,20-diazatetracyclo[20.3.1.0^2,7.0^10,14]hexacosa-1(26),2,4,6,22,24-hexaen-16-yl]acetamide], the IC50 in assay [1] was found to be 14.7 µM. For the same molecule, in assay [1] (10 μM compound), the inhibition at 10 µM turned out to be 45%.

As to `CN1CCC[C@H](NS(=O)(=O)C2CC2)C(=O)N2C[C@@H](NC(=O)Cc3ccc4ccccc4c3)C[C@H]2COc2ccccc2-c2cccc(c2)C1=O` [Ex. 21, N-[(10S,12S,16S)-16-[(cyclopropylsulfonyl)amino]-20-methyl-15,21-dioxo-8-oxa-14,20-diazatetracyclo[20.3.1.0^2,7.0^10,14]hexacosa-1(26),2,4,6,22,24-hexaen-12-yl]-2-(2-naphthyl)acetamide], in assay [1] (10 μM compound), the inhibition at 10 µM was 75%.

Consider `CC(C)CC(=O)N[C@H]1CCCN(C)C(=O)c2cccc(c2)-c2ccccc2OC[C@@H]2C[C@H](NC(=O)Cc3ccc4ccccc4c3)CN2C1=O` [Ex. 24, 3-methyl-N-[(10S,12S,16S)-20-methyl-12-{[2-(2-naphthyl)acetyl]amino}-15,21-dioxo-8-14,20-diazatetracyclo[20.3.1.0^2,7.0^10,14]hexacosa-1(26),2,4,6,22,24-hexaen-16-yl]butanamide], for which the “% Inhibition at 10 μM” value in assay [1] (10 μM compound) is recorded as 55%.

For the molecule `CCCC(=O)N[C@H]1CCCN(C)C(=O)c2cccc(c2)-c2ccccc2OC[C@@H]2C[C@H](NC(=O)Cc3ccc4ccccc4c3)CN2C1=O` [Ex. 27, N-[(10S,12S,16S)-20-methyl-12-{[2-(2-naphthyl)acetyl]amino)-15,21-dioxo-8-oxa-14,20-diazatetracyclo[20.3.1.0^2,7.0^10,14]hexacosa-1(26),2,4,6,22,24-hexaen-16-yl]butanamide], the inhibition at 10 µM in assay [1] (10 μM compound) worked out at 50%.

On to `CCCCC(=O)N[C@H]1CCCN(C)C(=O)c2cccc(c2)-c2ccccc2OC[C@@H]2C[C@H](NC(=O)Cc3ccc4ccccc4c3)CN2C1=O` [Ex. 28, N-[(10S,12S,16S)-20-methyl-12-{[2-(2-naphthyl)acetyl]amino}-15,21-dioxo-8-oxa-14,20-diazatetracyclo[20.3.1.0^2,7.0^10,14]hexacosa-1(26),2,4,6,22,24-hexaen-16-yl]pentanamide], for which, in assay [1] (10 μM compound), the inhibition at 10 µM was determined as 57%.

`CC(C)(C)OC(=O)N[C@@H]1C[C@H]2COc3cccc(c3)-c3cncc(c3)C(=O)NCCNCC(=O)N2C1` [Ex. 91, tert-butyl N-[(9S,11R)-14,20-dioxo-7-oxa-13,16,19,23-tetraazatetracyclo[19.3.1.1^2,6.0^9,13]hexacosa-1(25),2(26),3,5,21,23-hexaen-11-yl]carbamate]: the MIC in assay [2] is above 16 µg/mL; in assay [3] (strain ATCC 25923, read-out: MIC S. aureus ATCC 25923), 4 µg/mL (≈ 8.07 µM); in assay [3] (strain ATCC 29213, read-out: MIC S. aureus ATCC 29213), 2 to 4 µg/mL (≈ 4.04 to 8.07 µM); in assay [3] (strain DSM 11729, read-out: MIC S. aureus DSM 11729), 2 µg/mL (≈ 4.04 µM); in assay [3] (strain DSM 46320, read-out: MIC S. aureus DSM 46320) it was 4 µg/mL (≈ 8.07 µM); in assay [3] (strain S. aureus 39, read-out: MIC S. aureus 39), 8 µg/mL (≈ 16.1 µM).

In assay [4], `CN1CCNC(=O)c2cncc(c2)-c2cccc(c2)OC[C@@H]2C[C@@H](NC(=O)Cc3ccc4ccccc4c3)CN2C(=O)C1` [Ex. 96, N-[(9S,11R)-16-methyl-14,20-dioxo-7-oxa-13,16,19,23-tetraazatetracyclo[19.3.1.1^2,6.0^9,13]hexacosa-1(25),2(26),3,5,21,23-hexaen-11-yl]-2-(2-naphthyl) acetamide] yielded a concentration for half-maximal inhibition (IC50) of 1.2 µM. Further, the inhibition at 10 µM in assay [4] (10 μM) is 60%.

`CC(=O)N[C@@H]1C[C@H]2COc3cccc(c3)-c3cncc(c3)C(=O)NCCN(Cc3cccc(F)c3)CC(=O)N2C1` [Ex. 100, N-[(9S,11R)-16-(3-fluorobenzyl)-14,20-dioxo-7-oxa-13,16,19,23-tetraazatetracyclo[19.3.1.1^2,6.0^9,13]hexacosa-1(25),2(26),3,5,21,23-hexaen-11-yl]acetamide] registered an IC50 in assay [4] of 4.6 µM. The inhibition at 10 µM in assay [4] (10 μM) came out at 57%.

Regarding `CN1CCNC(=O)c2cncc(c2)-c2cccc(c2)OC[C@@H]2C[C@@H](NC(=O)Cc3cccc4ccccc34)CN2C(=O)C1` [Ex. 101, N-[(9S,11R)-16-methyl-14,20-dioxo-7-oxa-13,16,19,23-tetraazatetracyclo[19.3.1.1^2,6.0^9,13]hexacosa-1(25),2(26),3,5,21,23-hexaen-11-yl]-2-(1-naphthyl) acetamide], the 50% inhibitory concentration (IC50) in assay [4] was determined as 2.6 µM. The “Antagonist activity % Inhibition at 10 μM” value in assay [4] (10 μM) was 69%.

As to `CN1CCNC(=O)c2cncc(c2)-c2cccc(c2)OC[C@@H]2C[C@@H](NS(=O)(=O)c3ccccc3)CN2C(=O)C1` [Ex. 103, N-[(9S,11R)-16-methyl-14,20-dioxo-7-oxa-13,16,19,23-tetraazatetracyclo[19.3.1.1^2,6.0^9,13]hexacosa-1(25),2(26),3,5,21,23-hexaen-11-yl]benzenesulfonamide], the half-inhibitory concentration (IC50) in assay [4] was 6.9 µM. Further, testing at 10 µM in assay [4] (10 μM) gave an inhibition of 77%.
